Source: ChEMBL document CHEMBL5149985, “Discovery of cytotoxic natural products from Red Sea sponges: Structure and synthesis” (Eur J Med Chem, 2021)

Experiments:
HepG2 = assay: Anticancer activity against human HepG2 cells assessed as inhibition of cell growth incubated for 72 hrs by SRB assay; type: functional, cell-based; settings: HepG2, 72 h
HCT-116 = assay: Anticancer activity against human HCT-116 cells assessed as inhibition of cell growth incubated for 72 hrs by SRB assay; type: functional, cell-based; settings: HCT-116, 72 h
MCF7 [1] = assay: Anticancer activity against human MCF7 cells assessed as inhibition of cell growth incubated for 72 hrs by SRB assay; type: functional, cell-based; settings: MCF7, 72 h
HT-29 = assay: Anticancer activity against human HT-29 cells assessed as cell growth inhibition; type: functional, cell-based
P388 = assay: Anticancer activity against mouse P388 cells assessed as cell growth inhibition; type: functional, cell-based
A549 = assay: Anticancer activity against human A549 cells assessed as cell growth inhibition; type: functional, cell-based
Homo sapiens = species: Homo sapiens; assay: Inhibition of actin (unknown origin) polymerization at 1 uM incubated for 20 mins in presence of ATP by ELISA analysis relative to control
[2] = Inhibition of actin (unknown origin) polymerization incubated for 20 mins in presence of ATP by ELISA analysis; parameters: species or system Homo sapiens
MDA-MB-231 = assay: Anticancer activity against human MDA-MB-231 cells assessed as inhibition of cell growth incubated for 72 hrs by MTT assay; type: functional, cell-based; settings: MDA-MB-231, 72 h
MCF7 [3] = assay: Anticancer activity against human MCF7 cells assessed as inhibition of cell growth incubated for 72 hrs by MTT assay; type: functional, cell-based; settings: MCF7, 72 h
[4] = Inhibition of actin (unknown origin) polymerization at 100 nM incubated for 20 mins in presence of ATP by ELISA analysis relative to control; settings: Homo sapiens
HeLa = assay: Anticancer activity against human HeLa cells assessed as inhibition of cell growth; type: functional, cell-based
KB 3-1 = assay: Anticancer activity against human KB 3-1 cells assessed as inhibition in cell growth; type: functional, cell-based

`CC1(C)CCC[C@]2(C)[C@H]3C[C@@H](O)[C@]4(C)[C@@H](C=O)C(C=O)=CC[C@H]4[C@]3(C)CC[C@@H]12` gave an IC50 (HepG2) of 23.4 µM, an IC50 (HCT-116) of 27.1 µM and an IC50 (MCF7 [1]) of 36 µM.

For `C=C1CCCC(C)(C)C1(O)CCC[C@@]1(C)CC[C@@H]([C@H](C)C(=O)OC)OO1` (stereo not given in full), the IC50 (HT-29) was ≥ 1 µg/mL, the IC50 (P388) was ≥ 1 µg/mL and the IC50 (A549) was ≥ 1 µg/mL.

In the case of `C/C1=C/C(=O)O[C@@H]2C[C@@H](CC[C@H](C)/C=C\C=C\CC1)O[C@@](O)([C@@H]1CSC(=O)N1Cc1ccccc1)C2`, the inhibition (Homo sapiens) is reported as 64%, the IC50 [2] is reported as 0.445 µM and the IC50 (MDA-MB-231) is reported as 2.72 µM. The IC50 (MCF7 [3]) was 0.63 µM and the inhibition [4] was 24%.

Work on `O=C(O)[C@H](O)Cc1c[nH]c2ccc(O)cc12` [HYRTIOERECTINE C] yielded an IC50 (HeLa) of 0.02 µM.

`NC(=O)C[C@@]1(O)C=C(Cl)C(=O)C(Br)=C1` gave an IC50 (HeLa) of 0.0178 µM.

For `C[C@@H]1C(=O)C[C@H]2[C@@H](/C1=C/C[C@H]1[C@]3(C)CC[C@H](O)C(C)(C)O[C@H]3CC[C@]1(C)O)C(C)(C)CC[C@]2(C)O` [SIPHOLENOL J], the IC50 (KB 3-1) was 0.0047 µM.

For `O=C(O)C(=O)c1c(-c2c[nH]c3cc(O)ccc23)ncc2[nH]c3ccc(O)cc3c12`, the IC50 (HeLa) was 0.026 µM.

For `CO[C@H]1C[C@H]2[C@]3(C)CC[C@H]4C(C)(C)CCC[C@]4(C)[C@H]3C[C@@H](OC(C)=O)[C@]2(C)C2=C1[C@@H](O)OC2=O`, the IC50 (HepG2) was 42.5 µM, the IC50 (HCT-116) was 22.5 µM and the IC50 (MCF7 [1]) was 40.3 µM.

Compound `CC(C)=CCC[C@@]1(C)C(CC[C@H]2[C@]3(C)CC[C@H](O)C(C)(C)O[C@H]3CC[C@@]2(C)O)=C(C)CC[C@H]1O` [SIPHONELLINOL D] has an IC50 (KB 3-1) of 0.0042 µM.

With `CO[C@]1([C@@H]2CSC(=O)N2CCCO)C[C@H]2C[C@@H](CC[C@H](C)/C=C\C=C\CC/C(C)=C\C(=O)O2)O1` the inhibition (Homo sapiens) was 21%, the IC50 [2] was 8.55 µM and the IC50 (MDA-MB-231) was > 50 µM. For the same compound, the inhibition [4] was 0%.

`C#C/C=C\CCCCC#CC#CC#CCCC/C=C\C#CCO` [DEHYDROISOPHONOCHALYNOL] gave an IC50 (P388) of 0.0073 µM and an IC50 (HeLa) of 0.0169 µM.

Compound `CC1=C(CC[C@H]2[C@]3(C)CC[C@H](O)C(C)(C)O[C@H]3CC[C@]2(C)O)[C@@H]2[C@H](CC1OO)[C@@](C)(O)CCC2(C)C` (stereo not given in full) has an IC50 (KB 3-1) of 0.0047 µM.

`C/C1=C/C(=O)O[C@@H]2C[C@@H](CC[C@H](C)/C=C\C=C\CC1)O[C@@](OC(=O)c1ccccc1)([C@@H]1CSC(=O)N1)C2` showed an inhibition (Homo sapiens) of 67%, an IC50 [2] of 0.466 µM and an IC50 (MDA-MB-231) of 5.05 µM. The IC50 (MCF7 [3]) was 0.52 µM and the inhibition [4] was 23%.

In the case of `CCN1C(=O)SC[C@H]1[C@@]1(O)C[C@H]2C[C@@H](CC[C@H](C)/C=C\C=C\CC/C(C)=C\C(=O)O2)O1`, the inhibition (Homo sapiens) is reported as 70%, the IC50 [2] is reported as 0.283 µM and the IC50 (MDA-MB-231) is reported as 7.19 µM. It also gave an IC50 (MCF7 [3]) of 0.95 µM and an inhibition [4] of 31%.

Work on `C/C1=C/C(=O)O[C@@H]2C[C@@H](CC[C@H](C)/C=C\C=C\CC1)O[C@@](O)([C@@H]1CSC(=O)N1)C2` [LATRUNCULIN A] yielded an inhibition (Homo sapiens) of 70%, an IC50 [2] of 0.284 µM and an IC50 (MDA-MB-231) of 4.19 µM. For the same compound, the IC50 (MCF7 [3]) was 0.48 µM and the inhibition [4] was 30%.

`C#C/C=C\CCCCCCC#CC#CCCC/C=C\C#CCO` [CALLYSPONGENOL B] showed an IC50 (P388) of 0.0326 µM and an IC50 (HeLa) of 0.0326 µM.

Compound `CO[C@]1([C@@H]2CSC(=O)N2C(=O)c2ccccc2)C[C@H]2C[C@@H](CC[C@H](C)/C=C\C=C\CC/C(C)=C\C(=O)O2)O1` has an inhibition (Homo sapiens) of 53%, an IC50 [2] of 0.834 µM and an IC50 (MDA-MB-231) of 4.48 µM. The IC50 (MCF7 [3]) was 0.55 µM and the inhibition [4] was 17%.

With `CO[C@]1([C@@H]2CSC(=O)N2C)C[C@H]2C[C@@H](CC[C@H](C)/C=C\C=C\CC/C(C)=C\C(=O)O2)O1` the inhibition (Homo sapiens) was 19%, the IC50 [2] was > 10 µM and the IC50 (MDA-MB-231) was 19.9 µM. The inhibition [4] was 11%.

`CC(=O)O[C@@H]1C[C@@H]2[C@@]3(C)CCCC(C)(C)[C@@H]3CC[C@@]2(C)[C@@H]2CC=C3C(=O)OCC3[C@@]12C` (stereo not given in full) showed an IC50 (HepG2) of 15.5 µM, an IC50 (HCT-116) of 15.4 µM and an IC50 (MCF7 [1]) of 20.9 µM.

In the case of `CC(=O)O[C@H]1C[C@H]2[C@]3(C)CC[C@H]4C(C)(C)CCC[C@]4(C)[C@H]3C[C@@H](O)[C@]2(C)C2=C1COC2=O` [SESTERSTATIN 7], the IC50 (HepG2) is reported as 19.2 µM, the IC50 (HCT-116) is reported as 26.1 µM and the IC50 (MCF7 [1]) is reported as 24 µM.

With `CC(=O)O[C@@H]1C[C@@H]2[C@@]3(C)CCCC(C)(C)[C@@H]3CC[C@@]2(C)[C@@H]2C[C@H](O)C3=C([C@H](O)OC3=O)[C@@]12C` the IC50 (HepG2) was 21.8 µM, the IC50 (HCT-116) was 57.5 µM and the IC50 (MCF7 [1]) was 32.6 µM.

Compound `C[C@H]1N[C@@H](C(=O)O)Cc2c1[nH]c1ccc(O)cc21` [HYRTIOERECTINE B] has an IC50 (HeLa) of 0.02 µM.

In the case of `CO[C@H]1NC(=O)C2=C1[C@H](O)C[C@H]1[C@]3(C)CC[C@H]4C(C)(C)CCC[C@]4(C)[C@H]3C[C@@H](OC(C)=O)[C@]21C`, the IC50 (HepG2) is reported as 25.4 µM, the IC50 (HCT-116) is reported as 26.5 µM and the IC50 (MCF7 [1]) is reported as 55.4 µM.
